The values below come from publication PMC13144739, “Global analysis of cancer cell responses to USP9X inhibition” (The EMBO Journal, 2026).

In one data set the test system is T1, USP9X.
T1 construct: endogenous in cells; host or cells: MCF-7 cell lysate
As to the kind of experiment: DUB IP-MS in MCF-7 cell lysates, USP9X. The data set is classed as biochemical, human. Particulars: 50 µM. Here is the method:
MCF-7 cells have been profiled for active DUBs previously (Pinto-Fernández et al, [2019]). Lysates were generated as described by others (Turnbull et al, [2017]) using 30 s freeze-thaw cycles (thrice) in lysis buffer (50 mM Tris [pH 7.4], 5 mM MgCl2 × 6 H2O, 0.5 mM EDTA [pH 8.0], 250 mM sucrose and 1 mM DTT) at pH 7.5. […] A pre-treatment of cell lysates with 0.5 µg Ub-VS was included for a baseline DUB response to the Ub-VS probe. 0.1 µg 3X-FLAG-Ub-VS probe was added to samples and incubated for 5 min at 37 °C. […] Samples were washed thrice with lysis buffer and eluted from the resin with lysis buffer supplemented with 1% (w/v) SDS following a 10 min incubation. Two consecutive elutions were pooled, and samples were stored at −80 °C until processing.
DNA was hydrolysed with the addition of 2 µL neat TFA, and lysates were neutralised to pH 8.5 by the addition of 1 M Tris-HCl as previously described (Dagley et al, [2019]). Protein concentration was determined using Pierce™ BCA Protein Assay Kit (Thermo Fisher Scientific) following the manufacturer’s instructions. For DUB IP-MS, samples were processed using S-Trap spin columns (Profiti) by following the manufacturer’s instructions. […]

For the next data set, the system named is lymphoma line SR. Kind of data set: NCI-60 cancer cell panel, SR. It counts as cell-based, human. Particulars: 10 µM, 3 days. As for the experimental part: Inhibitors were tested at 10 µM. Data shown is the mean of two technical replicates and is shown relative to the no-drug control, and relative to the time zero number of cells.
Another data set has as its system SK-MEL-2 cells. Kind of data set: Lattice light sheet imaging of mitosis, SK-MEL-2. The note with it: 15 µM, imaged 24-48 h. The data set is classed as cell-based, human. Here is the method:
MDA-MB-231, MiaPaca2, HMEC-1, SK-MEL-2 and UO-31 cells were seeded at 2–15 × 10^4 cells/mL in 8-well glass µ-slides (ibidi). […] SPY650-Tubulin, SPY555-DNA (both Spirochrome, Inc.), and Annexin V FITC (Sigma-Aldrich) were added at a final concentration of 1 in 1000. Cells were left to grow for 24 h before time-lapse live-cell data were acquired using a Lattice Light Sheet 7 (Zeiss). […] Aberration correction was set to a value of 170 to minimise aberrations as determined by imaging the Point Spread Function using 100 nm fluorescent microspheres. Data were collected with a frame time of 10 ms and a z step of 0.4 μm with 834 frames per 290 μm by 290 μm. Individual regions were imaged in parallel across six wells of the eight-well chamber slide. Data are presented as Maximum Intensity Projections (MIPs), and these MIPs were used for all downstream analysis. Tile regions were imaged for 24 h with 10 min intervals at 37 °C, 5% CO2. Analysis was performed using the MIPs of the different full fields of cells over the 24–48 h time period. Mitosis and mitosis arrest were classified through a combination of automated image analysis and manual validation. […] Small erroneous detected spots were further removed through a manually adjusted size filter. […] The mean intensity of all tracks was then measured to determine mitosis and mitosis arrest. […]

Data set [1] has as its system human dermal fibroblasts (HDF). Kind of data set: IncuCyte live-cell imaging cell death, HDF. The data set is classed as cell-based. The note with it: 50 µM (Appendix Fig. S4E). As for the experimental part: Cells were seeded at varying densities (1000–8000 cells per well) after initial optimisation in a 96-well tissue culture-treated plate (Thermo Fisher Scientific). Cells were incubated o/n, and the next day, inhibitors and controls diluted in cell media were added to the cells to a final volume of 200 μL per well. Cell death was measured using PI (Sigma-Aldrich). Cells were imaged with four images per well every 2 h for up to 96 h using the IncuCyte live-cell analysis system (S3, Sartorius). Cell proliferation data were analysed using Microsoft Excel by normalising confluence to control conditions. For cell killing readouts, the number of PI-positive cells was normalised to the control conditions for each timepoint.

Regarding `Cc1[nH]c2ccc(C(=O)N3CCN(S(=O)(=O)c4ccc5c(c4)OCCO5)CC3)cc2c1C` [WEHI-092], the “inhibition of USP9X in MCF-7 lysate (DUB IP-MS)” value in the data set with USP9X is reported as “inhibited all active USP9X in the lysate”. For the same molecule, the “cell killing, SR” value in the data set on lymphoma line SR was “cell death”. Also, the “cell division phenotype, SK-MEL-2” value with SK-MEL-2 cells was “significant defects in cell division”. In addition, in data set [1], the “toxicity to HDFs” value was “non-lethal and non-toxic”.
